We go through 1 compound from patent US10543246B2, “Composition for preventing or treating hyperlipidemia” (HAWON PHARM. CORPORATION, priority 2014, dated 2020).

Each structure is given as a SMILES string.

Assay type in all cases: in vivo, SD rats (Sprague-Dawley rats)
For assay [1], the system named is SD rats with a high cholesterol diet (hyperlipidemia model). The assay can be described thus: Measurement of blood lipid in high cholesterol diet SD rats. To be noted: Ex. compositions 1000 mg/kg/day, atorvastatin 5 mg/kg/day.
Description: 6-Week-old male SD rats (Sprague-Dawley rats, body weight 180-220 g) were purchased from BioLink (Eumseong, Republic of Korea) and acclimated for a week. […] Drinking water was freely supplied. A room temperature of 22.0+/−2.0° C., a relative humidity of 50.0+/−10.0%, an illumination time of 12 hours (08:00 to 20:00), and an illuminance of 150 to 300 lux were set.
At the end of the experiment, each group was sacrificed after fasting for 12 hours. Their blood was collected from the posterior vena cava and transferred to an EDTA tube to separate the plasma. In the separated plasma, total cholesterol (TC), LDL cholesterol (LDL-c), HDL cholesterol (HDL-c) and triglycerides (TG) were measured using a biochemical kit (Asan Pharmaceutical Co., Ltd., Seoul, Republic of Korea).
The atherogenic index (AI) was calculated by the following equation (1) according to a method of Haulund et al. and the cardiac risk factor (CRF) was calculated by the following equation (2). Atherogenic Index(AI)=[(TC)−(HDL-c)]/[(HDL-c)] (1) Cardiac Risk Factor(CRF)=(TC)/(HDL-c) (2)
Assay [2] shares this test system. The assay can be described thus: Lipid analysis of liver tissue in high cholesterol diet SD rats. As to conditions: liver lipid extract, oral, Ex. compositions 1,000 mg/kg, atorvastatin 5 mg/kg. As for the experimental part: (§1) 6-Week-old male SD rats (Sprague-Dawley rats, body weight 180-220 g) were purchased from BioLink (Eumseong, Republic of Korea) and acclimated for a week. They were formed into groups of five rats as described in Table 2 below, and solid feed (Rodent NIH031 Open Formula Auto, Zeigler Bros., USA) and a high cholesterol diet (D12451 with 1.25% cholesterol, Research Diets Inc., USA) were freely fed. Drinking water was freely supplied. A room temperature of 22.0+/−2.0° C., a relative humidity of 50.0+/−10.0%, an illumination time of 12 hours (08:00 to 20:00), and an illuminance of 150 to 300 lux were set.
The total lipids in the liver were homogenized and then extracted using a Folch method. The extracted lipids were dissolved in an isopropanol solution, and then with the SPECTROstar Nano (BMG Labtech, Germany), total cholesterol and triglycerides in […] were colorimetrically quantified at 500 nm and 550 nm, respectively, using an enzyme reagent kit (Asan Pharmaceutical Co., Ltd., Seoul, Republic of Korea).

For assay [3] the test system is unchanged. The assay is described as follows: Measurement of body weight and liver weight, visual inspection of liver tissue. As to conditions: oral, 4 weeks, Ex. compositions 1,000 mg/kg, atorvastatin 5 mg/kg, mean of five rats. As for the experimental part: as §1
The body weight before drug administration and the body weight after the end of the experiment were measured. The liver weight was measured by weighing the liver extracted after lethal bleeding on the day of autopsy, and visual inspection of liver tissue was performed.

Consider `CC(C)c1c(C(=O)Nc2ccccc2)c(-c2ccccc2)c(-c2ccc(F)cc2)n1CC[C@@H](O)C[C@@H](O)CC(=O)O` [Atorvastatin], for which, in assay [1] ((TC)/(HDL-c)), the “Cardiac Risk Factor (CRF)” value is reported as 2.6. For the same compound, the LDL/HDL in assay [1] stood at 0.9. In assay [2], the “Hepatic total cholesterol concentration” value came to 146 mg/dL and the Hepatic triglyceride concentration came out at 197 mg/dL. In assay [3], the Body weight was determined as 571.6 g, the Liver weight turned out to be 24.5 g and the “Liver weight/Body weight” value came out at 4.26%.
